Legend:
MMP-9 [1] = assay: MMP-9 in culture supernatant of alveolar macrophages (BAL cells), ELISA; assay type: cell-based; settings: human alveolar macrophages; for MMP-9 expression: 5 μM final, day 3 (day 4 the same), culture supernatant
Description: (§1) For this purpose, human alveolar macrophages (AMs) were obtained via bronchial lavage. The AMs were seeded into Mono Mac 6 medium+10% FCS onto a 24 well “low attachment” plate (Costar) using 1×10^6 cells in a volume of 1 ml per each sample. Additions of vitamin A liposomes or of the pure substances, respectively, were carried out. Cells for RT-PCR or culture supernatant for protein determinations by means of ELISA, respectively, were harvested from parallel samples each on day 1, day 3, and day 4. Specifically, the following samples were prepared: • β=control sample, AMs in medium only • Lipleer=empty liposomes • LipVitA=liposomes containing vitamin A (retinoic acid, Sigma R-2625) 5 μM final • VitA=pure vitamin A (retinoic acid, Sigma R-2625) 5 μM final • LipPalm=liposomes containing all-trans retinol palmitate (Sigma R-3375) 3 μM final • Palmitat=all-trans retinol palmitate (Sigma R-3375) 3 μM final
(§2) The culture supernatants were monitored for MMP-9 and TMP-1 content using commercial ELISA kits (Amersham Pharmacia). In each case the numerals refer to ng/ml culture supernatant based on 1×10^6 cells.
(§3) • RPMI 1640 (Biochrom # F1415, Berlin), L-glutamine 2 mM (Gibco # 25030-024), penicillin 200 U/ml, streptomycin 200 μg/ml (Gibco # 15140-114), non-essential amino acids (NEAA) 1-2x (Gibco # 11140-35), OPI supplement (contains oxalacetate, Na pyruvate and insulin) 10 ml per 1 liter (Sigma # O-5003). Following filtration through a Gabro ultrafilter U 2000 (Martinsried, Germany) to remove LPS addition of 10% FCS, LPS tested. • Costar low attachment 24 well plates # 3473 (Bodenheim, Germany) 1×10^6 BAL cells (=cells obtained by brocho-alveolar lavage containing alveolar macrophages in an amount of about 80%) or 1.5×10^6 PBMCs (=peripheral blood mononuclear cells isolated via LymphoPrep gradient (Nycomed, Norway)), respectively, in a volume of 1 ml were used per sample. Pretreat the 24 well low attachment cell culture plate according to the manufacturer's instructions. For this purpose, fill the respective wells with 1 ml of medium and incubate for 20 min at 37° C. in an incubator. Afterwards remove the medium and replace by cell suspension. Add the liposomes loaded with vitamin A in a final concentration of 5×10^−6 M. Prepare parallel samples with pure vitamin A and empty liposomes as controls. For the measurement of MMP-9 and TIMP-1 in the culture supernatant and for determination of mRNA expression incubate the cells in an incubator for three days at 37° C. Afterwards resuspend the cells carefully and first remove 2×10^4 cells per PCR lysate for lysis in 200 μl of RNAclean (AGS, Heidelberg, Germany)in an Eppendorf reaction vial. Store these PCR lysates at −20° C. until further use. Transfer the remaining cell suspension into an Eppendorf vial and centrifuge for 5 min at 14,000×g. Remove the supernatant, transfer into a fresh vial and store at −80° C. until measurement. Summary of the Samples: • 1. BAL cells or PBMCs, respectively without any addition • 2. BAL cells or PBMCs, respectively + empty liposomes • 3. BAL cells or PBMCs, respectively + liposomes vitA 5 μM final • 4. BAL cells or PBMCs, respectively pure vitA 5 μM final Determinations of MMP-9 and TIMP-1 on the Protein Level by ELISA
(§4) For the measurement of MMP-9 and TIMP-1 in cell culture supernatants commercially available ELISA kits of Amersham Pharmacia Biotech company (Freiburg, Germany) are used. […]

TIMP-1 [2] = assay: TIMP-1 in culture supernatant of alveolar macrophages (BAL cells), ELISA; assay type: cell-based; settings: human alveolar macrophages; for TIMP-1 expression: 5 μM final, day 3 (day 4 the same), culture supernatant
Description: as §1, §2, §3, §4

MMP-9 [3] = assay: MMP-9 expression in blood monocytes (PBMCs); assay type: cell-based, human
Description: as §3, with “Afterwards resuspend the cells carefully and first remove 2×10^4 cells per PCR lysate for lysis in 200 μl of RNAclean (AGS, Heidelberg, Germany)in an Eppendorf reaction vial. Store these PCR lysates at −20° C. until further use. Transfer the remaining cell suspension into an Eppendorf vial and centrifuge for 5 min at 14,000×g. Remove the supernatant, transfer into a fresh vial and store at −80° C. until measurement. Summary of the Samples: • 1. BAL cells or PBMCs, respectively without any addition • 2. BAL cells or PBMCs, respectively + empty liposomes • 3. BAL cells or PBMCs, respectively + liposomes vitA 5 μM final • 4. BAL cells or PBMCs, respectively pure vitA 5 μM final Determinations of MMP-9 and TIMP-1 on the Protein Level by ELISA” left out

TIMP-1 [4] = assay: TIMP-1 expression in blood monocytes (PBMCs); assay type: cell-based, human
Description: as §3, with “Afterwards resuspend the cells carefully and first remove 2×10^4 cells per PCR lysate for lysis in 200 μl of RNAclean (AGS, Heidelberg, Germany)in an Eppendorf reaction vial. Store these PCR lysates at −20° C. until further use. Transfer the remaining cell suspension into an Eppendorf vial and centrifuge for 5 min at 14,000×g. Remove the supernatant, transfer into a fresh vial and store at −80° C. until measurement. Summary of the Samples: • 1. BAL cells or PBMCs, respectively without any addition • 2. BAL cells or PBMCs, respectively + empty liposomes • 3. BAL cells or PBMCs, respectively + liposomes vitA 5 μM final • 4. BAL cells or PBMCs, respectively pure vitA 5 μM final Determinations of MMP-9 and TIMP-1 on the Protein Level by ELISA” left out

TIMP = settings: Heath et al. 1990; cited from earlier work
[5] = test system: enzymes having gelatinase activities; settings: Park and Kim, Mol. Cells 1999; cited from earlier work
metalloproteases = settings: rat osteoblasts; Overall 1995; cited from earlier work
TMP-1 = settings: rat osteoblasts, depending on the dose; Overall 1995; cited from earlier work
MMP-9/TIMP-1 = MMP-9/TIMP-1 ratio of alveolar macrophages (BAL cells); assay type: cell-based, human; settings: day 3
Source text: There is increasing evidence that disorders in the protease/protease inhibitor equilibrium are the cause underlying the pathogenesis of chronic lung diseases. […] This is particularly true for patients suffering from chronic obstructive bronchitis (COPD). Among the MMPs in COPD, it is particularly the secretion of MMP-9 metalloprotease which is increased in the airways and alveoles and can no longer be completely neutralized by its natural antagonist TIMP-1 (tissue inhibitor of metalloprotease). […] An important criterion to determine the degree of the disturbance of the protease/antiprotease equilibrium is the proteinase-to-inhibitor ratio: MMP-9/TIMP-1.
For this purpose, human alveolar macrophages (AMs) were obtained via bronchial lavage. The AMs were seeded into Mono Mac 6 medium+10% FCS onto a 24 well “low attachment” plate (Costar) using 1×10^6 cells in a volume of 1 ml per each sample. Additions of vitamin A liposomes or of the pure substances, respectively, were carried out. Cells for RT-PCR or culture supernatant for protein determinations by means of ELISA, respectively, were harvested from parallel samples each on day 1, day 3, and day 4. […]
The culture supernatants were monitored for MMP-9 and TMP-1 content using commercial ELISA kits (Amersham Pharmacia). […]

[6] = day 1 following vitamin A addition

CC1=C(/C=C/C(C)=C/C=C/C(C)=C/CO)C(C)(C)CCC1 [retinol]
MMP-9 expression (MMP-9 [1]): clear inhibition | TIMP-1 expression (TIMP-1 [2]): stimulation | expression of MMP-9 metalloprotease (MMP-9 [3]): clear inhibition | TIMP-1 inhibitor expression (TIMP-1 [4]): stimulation | TIMP levels (TIMP): 0

CC1=C(/C=C/C(C)=C/C=C/C(C)=C/C(=O)O)C(C)(C)CCC1 [free vitamin A, all-trans retinoic acid]
MMP-9 expression (MMP-9 [1]): strongly reduced | MMP-9 expression (MMP-9 [1]; listed as retinoic acid): clear inhibition | TIMP-1 expression (TIMP-1 [2]): increase | TIMP-1 expression (TIMP-1 [2]; listed as retinoic acid): stimulation | expression of MMP-9 metalloprotease (MMP-9 [3]): clear inhibition | TIMP-1 inhibitor expression (TIMP-1 [4]): stimulation | activity of enzymes having gelatinase activities (metalloproteases) [5]: increased | expression of metalloproteases (metalloproteases): increases | mRNA levels of TMP-1 (TMP-1): clearly reduced

vitamin A
MMP-9 expression (MMP-9 [1]): significantly inhibits | MMP-9 on the protein level, day 1 (MMP-9 [1]; [6]): no effect | TIMP-1 expression (TIMP-1 [2]): significantly stimulates | TIMP-1 on the protein level, day 1 (TIMP-1 [2]; [6]): no effect | effect on the MMP-9/TIMP-1 ratio (MMP-9/TIMP-1): drastic effect

From patent US7476380B2, “Methods for treating illnesses of the tracheo-bronchial tract, especially chronic obstructive pulmonary disease (COPD)” (GSE-Forschungszentrum fur Umwelt und Gesundheit GmbH, priority 2000, dated 2009)
